The results in this text go back to patent US20260083704A1, “LXR MODULATORS WITH BICYCLIC CORE MOIETY FOR TREATING DYSLIPIDEMIAS” (OrsoBio, Inc., priority 2022, published 2026).

A value given as a limit tells only on which side of the number the result lay.

The target of the test is T1, GST-LXRβ ligand-binding domain (Homo sapiens, UniProt P55055).
T1 construct: amino acids 156-461; NP009052; made in house; host or cells: E. coli
T1 sequence (P55055 156-460 limits assumed): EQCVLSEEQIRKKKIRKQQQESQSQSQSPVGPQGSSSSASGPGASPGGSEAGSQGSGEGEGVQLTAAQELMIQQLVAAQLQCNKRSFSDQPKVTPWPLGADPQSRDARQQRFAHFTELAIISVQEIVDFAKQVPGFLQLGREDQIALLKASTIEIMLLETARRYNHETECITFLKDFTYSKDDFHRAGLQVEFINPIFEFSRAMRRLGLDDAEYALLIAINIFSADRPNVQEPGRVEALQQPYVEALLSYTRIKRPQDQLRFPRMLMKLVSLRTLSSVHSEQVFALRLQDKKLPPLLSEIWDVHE
Description: TR-FRETβ activity assay (NCoA3 coactivator peptide recruitment). Type of test: biochemical. As to conditions: 1 μM 24(S)-25-epoxycholesterol prestimulation. How it is done:
Recombinant GST-LXRβ ligand-binding domain (LBD; amino acids 156-461; NP009052; SEQ ID NO:4) was expressed in E. coli and purified via gluthatione-sepharose affinity chromatography. N-terminally biotinylated NCoA3 coactivator peptide (SEQ ID NO:7) was chemically synthesized (Eurogentec). Assays were done in 384 well format (final assay volume of 25 μL/well) in a Tris/HCl buffer (pH 6.8) containing KCl, bovine serum albumin, Triton-X-100 and 1 μM 24(S)-25-epoxycholesterol as LXR-prestimulating agonist. Assay buffer was provided and test articles (potential LXR inverse agonists) were titrated to yield final assay concentrations of 50 μM, 16.7 μM, 5.6 μM, 1.9 μM, 0.6 μM, 0.2 μM, 0.07 μM, 0.02 μM, 0.007 μM, 0.002 μM with one vehicle control. Finally, a detection mix was added containing anti GST-Tb cryptate (CisBio; 610SAXLB) and Streptavidin-XL665 (CisBio; 610SAXLB) as fluorescent donor and acceptor, respectively, as well as the coactivator peptide and LXRβ-LBD protein (SEQ ID NO:4). The reaction was mixed thoroughly, equilibrated for 1 h at 4° C. and vicinity of LXRβ and coactivator peptide was detected by measurement of fluorescence in a VictorX4 multiplate reader (PerkinElmer Life Science) using 340 nm as excitation and 615 and 665 nm as emission wavelengths. Assays were performed in triplicates.
240 mM KCl, 1 μg/μL BSA, 0.002% Triton-X-100, […] anti GST-Tb cryptate, 2.5 ng/μL Streptavidin-XL665, coactivator peptide (400 nM), LXRβ protein (530 μg/mL, i.e. 76 nM).
With `COc1ccc2c(c1)c(-c1ccsc1C#N)c(-c1cccs1)n2S(=O)(=O)c1ccc(Cl)cc1` [1/39], the EC50 was greater than 10 µM.

In turn, `N#Cc1sccc1-c1c(-c2ccccc2)n(S(=O)(=O)c2ccc(-c3cccc(C(=O)O)c3)cc2)c2ccccc12` [27/2] yielded an EC50 of 1 to 10 µM.

In turn, `N#Cc1sccc1-c1c(-c2cccc(N3CC(C(=O)O)C3)c2)n(S(=O)(=O)c2ccc(OC(F)F)cc2)c2ccc(F)cc12` [3/11] gave a concentration for a half-maximal effect (EC50) of 1 to 10 µM.

`N#Cc1sccc1-c1c(-c2ccccc2)n(S(=O)(=O)c2ccc(CC(=O)O)s2)c2ccccc12` [27/3] yielded an EC50 greater than 10 µM.

With `Cc1cccc(C#N)c1-c1c(-c2cccc(-c3ccc(C(=O)O)cc3Cl)c2)n(S(=O)(=O)c2ccc(C(F)F)cc2)c2ccc(F)cc12` [41/1, 2-chloro-3′-(3-(2-cyano-6-methylphenyl)-1-((4-(difluoro-methyl)phenyl)sulfonyl)-5-fluoro-1H-indol-2-yl)-[1,1′-biphenyl]-4-carboxylic acid], the EC50 was less than 0.1 µM.

Molecule `Cn1cnc(S(=O)(=O)n2c(-c3cccc(C4CC4C(=O)O)c3)c(-c3ccsc3C#N)c3ccccc32)c1` (stereo not shown) [30/10] returned an EC50 greater than 10 µM.

`N#Cc1sccc1-c1c(-c2cccs2)n(S(=O)(=O)c2ccc(Cl)cc2)c2cc(C(=O)O)ccc12` [Compound 19] came in with an EC50 greater than 10 µM.

`N#Cc1sccc1-c1c(-c2cccs2)n(S(=O)(=O)c2ccc(Cl)cc2)c2cc(OCC(=O)O)ccc12` [15/3] yielded an EC50 greater than 10 µM.

Consider `N#Cc1sccc1-c1c(-c2ccccc2)n(S(=O)(=O)c2ccc(CC(=O)O)cc2)c2ccccc12` [27/1], for which the EC50 was in the range of 1 to 10 µM.

`Cc1ccc(S(=O)(=O)n2c(-c3cccc(S(=O)(=O)CC(=O)O)c3)c(-c3ccsc3C#N)c3ccccc32)cc1` [3/15] displayed an EC50 of 1 to 10 µM.

The EC50 is the midpoint of the concentration-response curve.
